Source: patent US20110200624A1, “NOVEL PEPTIDES FOR USE IN TRANSFECTION” (MOLECULAR TRANSFER, INC., priority 2008, published 2011)

Tests used:
Assay in all cases: Transfection with β-galactosidase reporter plasmid pCMVSPORT-β-gal, β-gal activity (ONPG)
Type in all cases: cell-based
PC12 = PC12 cells; DMS lipid (1:1 DOPE), 1.0 μg plasmid DNA, 1.0 ug peptide; β-gal activity OD 405 nm
NIH 3T3 = NIH 3T3 cells; DMS lipid (1:1 DOPE), 1.0 μg plasmid DNA, 1.0 ug peptide; β-gal activity OD 405 nm
Description: (§1) Transfection of, NIH3T3, HepG2, Human Fibroblast, Jurkat and Cos-7 and with β-galactosidase reporter plasmid pCMV[…]SPORT-β-gal was carried out as follows:
(§2) Cells were plated in 96-well plates with 100 μl of media containing 10% fetal calf serum the day before transfection such that a desired confluency (70%-95%) was achieved the following day. The following day DMS lipid (1:1 DOPE) and DNA/peptide were mixed in Opti-MEM to form DNA/lipid/peptide complexes. Complexes were formed by adding various amounts of lipid (1-6 μl) to 100 μl of Opti-MEM. Plasmid DNA (1.0 μg) was added to 100 μl Opti-MEM then 1.0 ug of each peptide was added to the DNA mixture and incubated for 10 minutes. The DNA/peptide and lipids solutions were then mixed to form DNA/peptide/lipid complexes. The complexes were incubated for an additional 15 minutes. After incubation 20 μl of each of the resulting complexes was added directly to the cells in 10% serum. Cells were incubated for an additional 16-24 hours to allow expression of the plasmid. Medium was removed and the cells were lysed in 100-200 μl of lysis buffer. The lysates (20 μl) were assayed for β-gal activity using the enzymatic substrate ONPG. Total activity was determined by reading the OD at 405 nm using a Bio-Rad Benchmark Microplate Spectrophotometer.

Jurkat = Jurkat cells; DMS lipid (1:1 DOPE), 1.0 μg plasmid DNA, 1.0 ug peptide; β-gal activity OD 405 nm
Description: as §1, §2

HepG2 = HepG2 cells; DMS lipid (1:1 DOPE), 1.0 μg plasmid DNA, 1.0 ug peptide; β-gal activity OD 405 nm
Description: as §1, §2

Human Fibroblast = settings: DMS lipid (1:1 DOPE), 1.0 μg plasmid DNA, 1.0 ug peptide, β-gal activity OD 405 nm
Description: as §1, §2

Fold Ehancement over Lipid Alone (PC12) [Fold] | Fold Ehancement over Lipid Alone (NIH 3T3) [Fold] | Fold Ehancement over Lipid Alone (Jurkat) [Fold] | Fold Ehancement over Lipid Alone (HepG2) [Fold] | Fold Ehancement over Lipid Alone (Human Fibroblast) [Fold] | Substance
1.6 | 2.5 | 1.28 | 2 | 12 | (K)16DYYCAAWDDSLNGYSVF [Peptide #5]
2.09 | 0.89 | 4.8 | 1.3 | 14.5 | (K)16NSRDSSGIQNV [Peptide #2]
2.5 | 1.65 | 4.75 | 1.2 | 11.7 | (K)16VELDSFDY [Peptide #4]
0.37 | 1.86 | 1 | 1.6 | 19.9 | (K)16YYCARSDGNYGYYYALDYDY [Peptide #8]
1.8 | 1.7 | 4.56 | 0.97 | 3.7 | (K)16YYCDIRLRDP [Peptide #1]
0.91 | 1.46 | 1.47 | 3.3 | 29 | (K)16YYCLQSMEDPYTFGG [Peptide #7]
1.4 | 2.1 | 2 | 2.5 | 22.7 | (K)16YYCQQSYSTPWTFGQGTK [Peptide #10]

Substance | Fold Ehancement over Lipid Alone (PC12) [Fold] | Fold Ehancement over Lipid Alone (NIH 3T3) [Fold] | Fold Ehancement over Lipid Alone (Jurkat) [Fold] | Fold Ehancement over Lipid Alone (HepG2) [Fold] | Fold Ehancement over Lipid Alone (Human Fibroblast) [Fold]
(K)16AARSPSYYRYDYGPYYAMDYD [Peptide #9] | 2.68 | 2.17 | 5.78 | 4.25 | 21.9
(K)16AAWDDSLGI [Peptide #3] | 2.88 | 1.5 | 4.5 | 1.9 | 12.9
(K)16YYCQQRSSYPYTFGG [Peptide #6] | 1.13 | 1.93 | 1.75 | 4.2 | 34
